Test results: ChEMBL document CHEMBL1145710, “Antineoplastic agents. 362. Isolation and X-ray crystal structure of dibromophakellstatin from the Indian ocean sponge Phakellia mauritiana” (1997)
In brackets after ≈: the same amount, converted by molar mass.

Columns and labels:
Type in all cases: functional
KM-20L2 = test: Cytotoxicity against human KM20L2 cells by SRB assay; details: read-out: ED50 (the source's name)
OVCAR-3 = test: Cytotoxicity against human OVCAR-3 cells by SRB assay; details: read-out: ED50 (the source's name)
SF-295 = test: Cytotoxicity against human SF295 cells by SRB assay; details: read-out: ED50 (the source's name)
NCI-H460 = test: Cytotoxicity against human H460 cells by SRB assay; details: read-out: ED50 (the source's name)
A498 = test: Cytotoxicity against human A498 cells by SRB assay; details: read-out: ED50 (the source's name)
SK-MEL-5 = test: Cytotoxicity against human SK-MEL-5 cells by SRB assay; details: read-out: ED50 (the source's name)
[1] = Cytotoxicity against human MCF7/ADR cells by SRB assay; details: NCI/ADR-RES
PC-3 = test: Cytotoxicity against human PC3 cells by SRB assay
COLO 205 = test: Cytotoxicity against human COLO205 cells by SRB assay
K562 = test: Cytotoxicity against human K562 cells by SRB assay
NCI-H226 = test: Cytotoxicity against human NCI-H226 cells by SRB assay
A549 = test: Cytotoxicity against human A549 cells by SRB assay
OVCAR-5 = test: Cytotoxicity against human OVCAR5 cells by SRB assay
786-0 = test: Cytotoxicity against human 786-0 cells by SRB assay
HOP-92 = test: Cytotoxicity against human HOP92 cells by SRB assay
HT-29 = test: Cytotoxicity against human HT-29 cells by SRB assay
SNB-75 = test: Cytotoxicity against human SNB75 cells by SRB assay
HCT-116 = test: Cytotoxicity against human HCT116 cells by SRB assay
MDA-MB-231 = test: Cytotoxicity against human MDA-MB-231 cells by SRB assay
SF-539 = test: Cytotoxicity against human SF539 cells by SRB assay
U-251 = test: Cytotoxicity against human U251 cells by SRB assay
[2] = Cytotoxicity against human Hs 578T cells by SRB assay
NCI-H522 = test: Cytotoxicity against human NCI-H522 cells by SRB assay
OVCAR-8 = test: Cytotoxicity against human OVCAR8 cells by SRB assay

Row | Compound | EC50 (KM-20L2) | EC50 (OVCAR-3) | EC50 (SF-295) | EC50 (NCI-H460) | EC50 (A498) | EC50 (SK-MEL-5) | also measured
1 | NC1=N/C(=C2/CCNC(=O)c3[nH]ccc32)C(=O)N1 [DEBROMOHYMENIALDISINE] | 8.5 µg/mL (≈ 34.7 µM) | 1.8 µg/mL (≈ 7.34 µM) | 38.9 µg/mL (≈ 159 µM) | 42 µg/mL (≈ 171 µM) | 24.7 µg/mL (≈ 101 µM) | 5.7 µg/mL (≈ 23.2 µM) | 
2 | NC1=N[C@]23CCCN2C(=O)c2cc(Br)c(Br)n2[C@@H]3N1 [DIBROMOPHAKELLIN] | 20.1 µg/mL (≈ 51.7 µM) | 15.7 µg/mL (≈ 40.4 µM) | 18.8 µg/mL (≈ 48.3 µM) | 22 µg/mL (≈ 56.5 µM) | 17.8 µg/mL (≈ 45.8 µM) | 17 µg/mL (≈ 43.7 µM) | 
3 | O=C1N[C@H]2n3c(cc(Br)c3Br)C(=O)N3CCC[C@]23N1 [DIBROMOPHAKELLSTATIN] | 0.11 µg/mL (≈ 0.282 µM) | 0.46 µg/mL (≈ 1.18 µM) | 1.5 µg/mL (≈ 3.85 µM) | 0.62 µg/mL (≈ 1.59 µM) | 0.21 µg/mL (≈ 0.538 µM) | 0.11 µg/mL (≈ 0.282 µM) | GI50 [1]: 525 nM; GI50 (PC-3): 708 nM; GI50 (COLO 205): 794 nM; GI50 (K562): 692 nM; GI50 (NCI-H226): 871 nM; GI50 (A549): 676 nM; GI50 (OVCAR-5): 676 nM; GI50 (786-0): 603 nM; GI50 (HOP-92): 490 nM; GI50 (HT-29): 631 nM; GI50 (SNB-75): 776 nM; GI50 (HCT-116): 575 nM; GI50 (MDA-MB-231): 724 nM; GI50 (SF-539): 617 nM; GI50 (U-251): 589 nM; GI50 [2]: 871 nM; GI50 (NCI-H522): 240 nM; GI50 (OVCAR-8): 120 nM
